From patent US20240254175A1, “NOVEL SELECTIVE ANT[…] PEPTIDES” (BOMBI BIOMICS BV, priority 2021, published 2024)
Non-standard residues stand in square brackets, D forms with d. Residues, ends and D or L forms follow the SMILES beside them. No end group written: not given here. *: point of attachment. Palmitoyl = CCCCCCCCCCCCCCCC(=O)*

What was measured:
human erythrocytes = system: human erythrocytes
Protocol: A hemolytic assay was performed as previously described by Zelezetsky et al.. Freshly drawn human erythrocytes were rinsed three times with phosphate buffered saline (PBS) and resuspended in PBS to 4% (v/v). […] PBS and 0.1% (v/v) Triton-X 100 were used as 0% and 100% hemolytic control respectively. Plates were incubated at 37° C. for 1 hour.
Subsequently, the plate was centrifuged and the supernatant was transferred to a new plate. The release of hemoglobin in the supernatant was monitored at absorbance of 450 nm using an Infinite M1000 Microplate reader (Tecan). Results were pooled from three independent experiments and expressed as mean±SD. HC10 and HC50 were defined as the peptide concentrations causing 10% and 50% hemolysis on human erythrocytes, respectively.

[1] = system: other bacteria tested (C. granulosum, C. avidum, S. aureus, S. epidermis, C. striatum); experiment: In vitro killing assay on the other (non C. acnes) bacteria; assay type: cell-based
Protocol: Inoculi of mid-log phase bacteria were prepared by incubating the above isolated colonies from blood agar plates in Tryptic Soy Broth (TSB) medium (Becton Dickinson, Le Pont de Clax, France) for 2.5 hours and then diluted to the concentration needed.
For the in vitro killing assay on mid-log phase bacteria, each of the above strains were resuspended to a concentration of 1×10^6 bacteria/ml in phosphate buffered saline (PBS). Subsequently, 200 μl was added to a concentration range of peptides Wildtype BLP-7, BMBN-1, BMBN-2, BMBN-3, BMBN-4, BMBN-5, BMBN-6, and BMBN-7 that were lyophilized in advance. Subsequently, the bacteria-peptide mixtures were incubated for 1 hour at 37° C. To establish the killing capacity and specificity of these peptides, the suspensions were serially diluted and plated onto DST agar plates to measure viable CFU counts. IC90, IC99 and IC99.9 values were calculated by linear regression analysis. […] Results were pooled from 4 independent experiments concerning the above C. acnes strains (FIG. 2B) and 5 independent experiments concerning the other non C. acnes related strains (FIG. 2B continued). The results are expressed as mean±standard deviation (SD).

C. acnes biofilm = conditions: strains with the strongest C. acnes biofilm formation ability
Protocol: Briefly, 250 μl of bacterial cells (1×10^6 CFU/ml) of 10 strains (C. acnes 3, 4, 23, 25, 55, 61, 62, 63, 68, 78) (FIG. 9) with the strongest biofilm formation ability were inoculated in a Greiner polyethylene 96well plate (Sigma Aldrich); TSB culture medium containing no bacteria was used as the blank control, and the plate was incubated at 37° C. for 24 hours. The culture medium was subsequently removed, and wells were carefully washed with PBS three times to remove C. acnes bacteria.
Subsequently, 250 μl of TSB culture medium containing the aforementioned polypeptides in serial doubling dilutions was added to each well. TSB medium without any of the polypeptides was used as a negative control, and plates were incubated at 37° C. for 24 hours. If OD600<0.1, there was no bacterial growth, and the lowest concentration without bacterial growth at this time point was recorded; this is the Minimum Biofilm Inhibitory Concentration (MBIC). Then, the cells and polypeptides in the 96-well cell culture plate were washed with PBS, and 250 μl of TSB culture medium was added to each well.
The plates were incubated at 37° C. for 24 hours to re-grow the surviving biofilm bacteria. […] The lowest concentration at which no bacterial growth was recorded is the minimal biofilm eradication concentration (MBEC).

For “GIGGALLSAGKSALKGLAKGLAEHFAN-NH2 [Wildtype BLP-7, reference compound]”, the “hemolytic activity (in words)” value (human erythrocytes) was “within the range of negligible hemolytic activity”.
In the case of `CCCCCCCCCCCCCCCC(=O)N[C@@H](CCC(=O)O)C(=O)N[C@@H](CCCNC(=N)N)C(=O)N[C@@H](CC(N)=O)C(=O)N[C@@H](CC(N)=O)C(=O)N[C@@H](Cc1ccccc1)C(=O)NCC(=O)NCC(=O)NCC(=O)N[C@H](CC(N)=O)C(=O)N[C@H](C)C(=O)N[C@H](Cc1ccccc1)C(=O)N[C@H](Cc1c[nH]cn1)C(=O)N[C@H](CCC(=O)O)C(=O)N[C@H](C)C(=O)N[C@H](CC(C)C)C(=O)NCC(=O)N[C@H](CCCCN)C(=O)N[C@H](C)C(=O)N[C@H](CC(C)C)C(=O)NCC(=O)N[C@H](CCCCN)C(=O)N[C@H](CC(C)C)C(=O)N[C@H](C)C(=O)N[C@H](CO)C(=O)N[C@H](CCC(=O)O)C(=O)NCC(=O)N[C@H](C)C(=O)N[C@H](CO)C(=O)N[C@H](CC(C)C)C(=O)N[C@H](CC(C)C)C(=O)N[C@H](C)C(=O)NCC(=O)NCC(=O)N[C@@H](C(=O)NCC(N)=O)[C@H](C)CC` [BMBN-6] (Palmitoyl-ERNNFGGG[dN][dA][dF][dH][dE][dA][dL]G[dK][dA][dL]G[dK][dL][dA][dS][dE]G[dA][dS][dL][dL][dA]GG[dI]G-NH2), the “effect on other, untargeted bacteria / specificity towards C. acnes (in words)” value [1] is reported as “specificity towards C. acnes only negligibly decreased”.
`CCCCCCCCCCCCCCCC(=O)NCC(=O)N[C@H](C(=O)NCC(=O)NCC(=O)N[C@@H](C)C(=O)N[C@@H](CC(C)C)C(=O)N[C@@H](CC(C)C)C(=O)N[C@@H](CO)C(=O)N[C@@H](C)C(=O)NCC(=O)N[C@@H](CCCCN)C(=O)N[C@@H](CO)C(=O)N[C@@H](C)C(=O)N[C@@H](CC(C)C)C(=O)N[C@@H](CCCCN)C(=O)NCC(=O)N[C@@H](CC(C)C)C(=O)N[C@@H](C)C(=O)N[C@@H](CCCCN)C(=O)NCC(=O)N[C@@H](CC(C)C)C(=O)N[C@@H](C)C(=O)N[C@@H](CCC(=O)O)C(=O)N[C@@H](Cc1c[nH]cn1)C(=O)N[C@@H](Cc1ccccc1)C(=O)N[C@@H](C)C(=O)N[C@@H](CC(N)=O)C(N)=O)[C@@H](C)CC` [BMBN-1] (Palmitoyl-GIGGALLSAGKSALKGLAKGLAEHFAN-NH2) was tested, and the “MBEC (concentration that eradicates the biofilm)” value (C. acnes biofilm) was 235 to 496 µg/mL.
For `CCCCCCCCCCCCCCCC(=O)N[C@H](CCC(=O)O)C(=O)N[C@H](CCCNC(=N)N)C(=O)N[C@H](CC(N)=O)C(=O)N[C@H](CC(N)=O)C(=O)N[C@H](Cc1ccccc1)C(=O)NCC(=O)NCC(=O)NCC(=O)NCC(=O)N[C@@H](C(=O)NCC(=O)NCC(=O)N[C@H](C)C(=O)N[C@H](CC(C)C)C(=O)N[C@H](CC(C)C)C(=O)N[C@H](CO)C(=O)N[C@H](C)C(=O)NCC(=O)N[C@H](CCC(=O)O)C(=O)N[C@H](CO)C(=O)N[C@H](C)C(=O)N[C@H](CC(C)C)C(=O)N[C@H](CCCCN)C(=O)NCC(=O)N[C@H](CC(C)C)C(=O)N[C@H](C)C(=O)N[C@H](CCCCN)C(=O)NCC(=O)N[C@H](CC(C)C)C(=O)N[C@H](C)C(=O)N[C@H](CCC(=O)O)C(=O)N[C@H](Cc1c[nH]cn1)C(=O)N[C@H](Cc1ccccc1)C(=O)N[C@H](C)C(=O)N[C@H](CC(N)=O)C(N)=O)[C@H](C)CC` [BMBN-7] (Palmitoyl-[dE][dR][dN][dN][dF]GGGG[dI]GG[dA][dL][dL][dS][dA]G[dE][dS][dA][dL][dK]G[dL][dA][dK]G[dL][dA][dE][dH][dF][dA][dN]-NH2), the “hemolytic activity (in words)” value (human erythrocytes) was “negligible hemolytic activity” and the “MBIC (concentration that inhibits the biofilm)” value (C. acnes biofilm) was 56 to 117 µg/mL.
